# According to patent US6358885B1, “Substituted phenylheterocyclic herbicides” (Mississippi State University, priority 1992, dated 2002):
# How the values were obtained:
# Assay in all cases: Test B preemergence/postemergence greenhouse plant response rating 0 to 10
# barnyardgrass = format: in vivo, Echinochloa crus-galli; conditions: for Plant response rating, Barnyardgrass: 0 to 10 scale
# In short: (§1)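 Postemergence treatment of plants two to eighteen cm tall ran alongside preemergence treatment of planted seed, each using compound in a non-phytotoxic solvent.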
# cotton = format: in vivo, Gossypium hirsutum; conditions: for Plant response rating, Cotton: 0 to 10 scale
# In short: as §1
# morningglory = format: in vivo, Ipomoea hederacea; conditions: for Plant response rating, Morningglory: 0 to 10 scale; for Plant response rating (0 to 10 scale), Morningglory: Rate 100 g/ha
# In short: as §1
# velvetleaf = format: in vivo, Abutilon theophrasti; conditions: for Plant response rating, Velvetleaf: 0 to 10 scale
# In short: as §1
# wheat = format: in vivo, Triticum aestivum; conditions: for Plant response rating, Wheat: 0 to 10 scale; for Plant response rating (0 to 10 scale), Wheat: Rate 100 g/ha
# In short: as §1
SMILES,"Plant response rating (0 to 10 scale), Barnyardgrass (barnyardgrass; POSTEMERGENCE, Rate 50 g/ha)","Plant response rating, Barnyardgrass (barnyardgrass; POSTEMERGENCE, Rate 200 g/ha)","Plant response rating, Barnyardgrass (barnyardgrass; PREEMERGENCE, Rate 50 g/ha)","Plant response rating, Barnyardgrass (barnyardgrass; Rate 200 g/ha, PREEMERGENCE)","Plant response rating (0 to 10 scale), Cotton (cotton; POSTEMERGENCE, Rate 50 g/ha)","Plant response rating, Cotton (cotton; POSTEMERGENCE, Rate 200 g/ha)","Plant response rating, Cotton (cotton; PREEMERGENCE, Rate 50 g/ha)","Plant response rating, Cotton (cotton; Rate 200 g/ha, PREEMERGENCE)","Plant response rating, Morningglory (morningglory; POSTEMERGENCE, Rate 50 g/ha)","Plant response rating, Morningglory (morningglory; POSTEMERGENCE, Rate 200 g/ha)","Plant response rating, Morningglory (morningglory; PREEMERGENCE, Rate 50 g/ha)","Plant response rating, Morningglory (morningglory; Rate 200 g/ha, PREEMERGENCE)","Plant response rating, Velvetleaf (velvetleaf; POSTEMERGENCE, Rate 50 g/ha)","Plant response rating, Velvetleaf (velvetleaf; POSTEMERGENCE, Rate 200 g/ha)","Plant response rating, Velvetleaf (velvetleaf; PREEMERGENCE, Rate 50 g/ha)","Plant response rating, Velvetleaf (velvetleaf; Rate 200 g/ha, PREEMERGENCE)","Plant response rating, Wheat (wheat; POSTEMERGENCE, Rate 50 g/ha)","Plant response rating, Wheat (wheat; POSTEMERGENCE, Rate 200 g/ha)","Plant response rating, Wheat (wheat; PREEMERGENCE, Rate 50 g/ha)","Plant response rating, Wheat (wheat; Rate 200 g/ha, PREEMERGENCE)",also measured
Clc1ccc(-c2nc3n(c2Cl)CCC=C3)c(Cl)c1 [Compound 1],2,3,0,0,7,8,0,0,6,7,0,0,3,8,0,0,1,2,0,0,–
Clc1ccc(-c2nc3n(c2Br)CCCC3)c(Cl)c1 [Compound 2],3,3,0,0,9,9,0,0,9,9,0,0,9,8,0,0,1,2,0,0,"Plant response rating (0 to 10 scale), Barnyardgrass (barnyardgrass; POSTEMERGENCE, Rate 100 g/ha): 3; Plant response rating, Barnyardgrass (barnyardgrass; POSTEMERGENCE, Rate 400 g/ha): 5; Plant response rating (0 to 10 scale), Barnyardgrass (barnyardgrass; PREEMERGENCE, Rate 100 g/ha): 0; Plant response rating, Barnyardgrass (barnyardgrass; PREEMERGENCE, Rate 400 g/ha): 2; Plant response rating (0 to 10 scale), Cotton (cotton; POSTEMERGENCE, Rate 100 g/ha): 10; Plant response rating, Cotton (cotton; POSTEMERGENCE, Rate 400 g/ha): 10; Plant response rating (0 to 10 scale), Cotton (cotton; PREEMERGENCE, Rate 100 g/ha): 0; Plant response rating, Cotton (cotton; PREEMERGENCE, Rate 400 g/ha): 2; Plant response rating (0 to 10 scale), Morningglory (morningglory; POSTEMERGENCE): 9; Plant response rating, Morningglory (morningglory; POSTEMERGENCE, Rate 400 g/ha): 9; Plant response rating (0 to 10 scale), Morningglory (morningglory; PREEMERGENCE): 0; Plant response rating, Morningglory (morningglory; PREEMERGENCE, Rate 400 g/ha): 2; Plant response rating (0 to 10 scale), Velvetleaf (velvetleaf; POSTEMERGENCE, Rate 100 g/ha): 8; Plant response rating, Velvetleaf (velvetleaf; POSTEMERGENCE, Rate 400 g/ha): 9; Plant response rating, Velvetleaf (velvetleaf; PREEMERGENCE, Rate 400 g/ha): 4; Plant response rating (0 to 10 scale), Wheat (wheat; POSTEMERGENCE): 2; Plant response rating, Wheat (wheat; POSTEMERGENCE, Rate 400 g/ha): 2; Plant response rating (0 to 10 scale), Wheat (wheat; PREEMERGENCE): 0; Plant response rating, Wheat (wheat; PREEMERGENCE, Rate 400 g/ha): 0"
CC(C)Oc1cc(-c2nn3c(c2Cl)CCCC3)c(F)cc1Cl [Compound 21],6,9,2,7,10,10,2,7,10,9,2,2,10,9,1,10,3,8,3,2,–
Fc1cc(Cl)c(OCc2ccccc2)cc1-c1nn2c(c1Cl)CCCC2 [Compound 22],3,5,2,5,10,10,2,4,5,9,2,2,6,9,4,5,3,4,0,1,–
CCCOc1cc(-c2nn3c(c2Cl)CCCC3)c(F)cc1Cl [Compound 23],7,9,4,6,10,10,5,5,8,10,3,8,9,10,1,10,2,6,0,2,–
Fc1cc(Cl)c(OC2CCCC2)cc1-c1nn2c(c1Cl)CCCC2 [Compound 24],4,6,1,4,10,10,3,8,9,8,1,5,10,10,1,9,3,4,0,1,–
CCS(=O)(=O)Oc1cc(-c2nn3c(c2Cl)CCCC3)c(F)cc1Cl [Compound 25],3,5,2,6,10,10,4,5,8,10,1,5,8,10,1,10,3,4,0,2,–
